What was measured:
[1] = biological target: Cholecystokinin CCK1 (Homo sapiens, UniProt P32238); experiment: 41-target safety off-target activity panel
[2] = biological target: Adrenergic α1A (Homo sapiens, UniProt P35348); experiment: 41-target safety off-target activity panel
[3] = biological target: Adrenergic α2A (Homo sapiens, UniProt P08913); experiment: 41-target safety off-target activity panel
[4] = tested on: NCI-H358 lung cancer xenograft; experiment: Cell line–derived xenograft study; type: in vivo, NCG mice; details: 10 mg/kg daily dose, orally
Text: (§1) Female BALB/c nude mice (CAnN.Cg-Foxn1^nu/Crl, RRID: IMSR_CRL:194) were obtained from Beijing Vital River Laboratory Animal Technology Co., Ltd. Female BALB/c-nu mice (BALB/cAnSlacNifdc-nu) were obtained from SPF (Beijing) Biotechnology Co., Ltd. Female NCG mice (NOD/ShiLtJGpt-Prkdc^em26Cd52Il2rg^em26Cd22/Gpt) were obtained from GemPharmatech. Subcutaneous tumors were induced by injecting cells in PBS containing 50% BD Matrigel (Corning) in the right flank of female BALB/c-nu mice (NCI-H1373, 5 × 10^6 cells), female BALB/c nude mice (MIA PaCa-2, 1 × 10^7 cells), or female NCG mice (NCI-H358, 5 × 10^6 cells).

[5] = biological target: Cholinesterase AChE (Homo sapiens, UniProt P22303); experiment: 41-target safety off-target activity panel
Chain of Cholinesterase AChE (P22303 32-614): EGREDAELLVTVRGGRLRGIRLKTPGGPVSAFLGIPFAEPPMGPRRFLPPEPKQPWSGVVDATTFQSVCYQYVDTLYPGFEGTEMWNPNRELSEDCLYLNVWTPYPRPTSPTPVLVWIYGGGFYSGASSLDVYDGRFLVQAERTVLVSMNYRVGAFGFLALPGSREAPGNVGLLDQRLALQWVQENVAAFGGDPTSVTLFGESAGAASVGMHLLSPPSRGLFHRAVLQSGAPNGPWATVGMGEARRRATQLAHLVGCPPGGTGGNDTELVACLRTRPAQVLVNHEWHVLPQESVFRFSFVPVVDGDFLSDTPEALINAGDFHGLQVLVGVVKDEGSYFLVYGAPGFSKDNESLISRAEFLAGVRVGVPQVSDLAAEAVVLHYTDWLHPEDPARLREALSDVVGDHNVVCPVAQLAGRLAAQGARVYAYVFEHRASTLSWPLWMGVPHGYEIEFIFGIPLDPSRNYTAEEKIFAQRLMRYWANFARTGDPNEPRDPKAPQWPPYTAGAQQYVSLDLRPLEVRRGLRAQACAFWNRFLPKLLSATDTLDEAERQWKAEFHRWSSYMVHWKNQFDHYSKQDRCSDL

[6] = biological target: Adenosine A2A (Homo sapiens, UniProt P29274); experiment: 41-target safety off-target activity panel
Chain of Adenosine A2A (P29274 whole entry): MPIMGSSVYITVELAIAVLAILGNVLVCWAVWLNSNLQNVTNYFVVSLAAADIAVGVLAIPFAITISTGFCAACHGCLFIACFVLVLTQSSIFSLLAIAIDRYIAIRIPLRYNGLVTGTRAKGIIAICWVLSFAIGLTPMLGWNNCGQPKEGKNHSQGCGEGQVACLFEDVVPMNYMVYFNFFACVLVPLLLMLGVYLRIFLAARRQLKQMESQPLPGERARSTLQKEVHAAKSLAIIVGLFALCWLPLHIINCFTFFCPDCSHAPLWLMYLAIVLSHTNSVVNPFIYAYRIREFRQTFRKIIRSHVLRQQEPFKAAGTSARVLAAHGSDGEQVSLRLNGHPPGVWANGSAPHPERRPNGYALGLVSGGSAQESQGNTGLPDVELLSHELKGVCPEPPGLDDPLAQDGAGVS

[7] = tested on: all other kinases of the 330-kinase panel; experiment: 330-kinase panel; details: glecirasib 10 μmol/L, Km concentration of ATP
[8] = biological target: T1, GppNp-bound NRAS WT (Homo sapiens, UniProt P01111); experiment: GppNp-loaded RAS and cRAF interaction assay (HTRF); type: biochemical
T1 construct: His-tagged NRAS WT (aa 1–172); made in house; host or cells: Escherichia coli
T1 sequence (P01111 1-172): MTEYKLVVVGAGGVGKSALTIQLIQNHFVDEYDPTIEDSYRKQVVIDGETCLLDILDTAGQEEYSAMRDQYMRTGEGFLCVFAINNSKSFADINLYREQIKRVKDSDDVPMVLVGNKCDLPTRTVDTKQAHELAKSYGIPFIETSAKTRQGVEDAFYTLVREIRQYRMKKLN

[9] = biological target: T2, PIM2 (Homo sapiens, UniProt Q9P1W9); experiment: 330-kinase panel; type: biochemical
T2 construct: purchased ICE Bioscience (contract screen)
Text: Supplementary Table S4. 330-kinase panel.

[10] = biological target: Sodium channel Nav1.5 (Homo sapiens, UniProt Q14524); experiment: 41-target safety off-target activity panel
[11] = biological target: T3, GppNp-bound HRAS WT (Homo sapiens, UniProt P01112); experiment: GppNp-loaded RAS and cRAF interaction assay (HTRF); type: biochemical
T3 construct: His-tagged HRAS WT (aa 1–166); made in house; host or cells: Escherichia coli
T3 sequence (P01112 1-166): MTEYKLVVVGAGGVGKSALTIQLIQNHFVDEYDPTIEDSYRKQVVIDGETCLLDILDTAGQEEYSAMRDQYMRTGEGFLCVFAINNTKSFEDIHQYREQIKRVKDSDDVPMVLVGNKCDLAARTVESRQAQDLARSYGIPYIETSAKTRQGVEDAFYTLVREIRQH

[12] = biological target: Serotonin Transporter SET (Homo sapiens, UniProt P31645); experiment: 41-target safety off-target activity panel
[13] = tested on: SW1463 cells; experiment: 3D cell viability combination study with cetuximab (Loewe synergy); type: cell-based; details: Homo sapiens
Description: (§2) The inhibitory activity of compounds on Ba/F3-engineered cell line viability was tested by Kyinno Biotechnology. Other cell viability assays on human cancer cell lines were conducted in-house. Cells were seeded in 96-well plates and incubated overnight, followed by treatment with various concentrations of compounds or solvent control for 6 days. Cell viability was detected using either the CellTiter-Glo (CTG) luminescent cell viability assay or the CTG 3D cell viability assay (Promega) for 2D and 3D CTG assays, respectively. For 3D CTG assays, cells were plated in round-bottom ultra-low attachment 96-well plates (Corning 7007). The cell density is indicated in Supplementary Table S3.
(§3) The synergistic effect in combination studies was determined using SynergyFinder^+ R package (RRID: SCR_019318; ref. [23]). Loewe score >5 indicates synergistic effect, −5 ≤ Loewe score ≤5 additive effect, and Loewe score < −5 antagonistic effect.
(§4) WT: wild type; AMP: amplification; CTG: CellTiter-Glo.

[14] = tested on: SW837 cells; experiment: as above; type: cell-based; details: Homo sapiens
Description: as §2, §3, §4

[15] = tested on: CR6256 PDX tumors rebounding after sotorasib treatment; experiment: PDX study on tumors regrown under sotorasib; type: in vivo, mice; details: after 63 days of 100 mg/kg sotorasib; then 100 mg/kg sotorasib, 100 mg/kg glecirasib, 50 mg/kg cetuximab or combination
[16] = biological target: Adrenergic β1 (Homo sapiens, UniProt P08588); experiment: 41-target safety off-target activity panel
Chain of Adrenergic β1 (P08588 whole entry): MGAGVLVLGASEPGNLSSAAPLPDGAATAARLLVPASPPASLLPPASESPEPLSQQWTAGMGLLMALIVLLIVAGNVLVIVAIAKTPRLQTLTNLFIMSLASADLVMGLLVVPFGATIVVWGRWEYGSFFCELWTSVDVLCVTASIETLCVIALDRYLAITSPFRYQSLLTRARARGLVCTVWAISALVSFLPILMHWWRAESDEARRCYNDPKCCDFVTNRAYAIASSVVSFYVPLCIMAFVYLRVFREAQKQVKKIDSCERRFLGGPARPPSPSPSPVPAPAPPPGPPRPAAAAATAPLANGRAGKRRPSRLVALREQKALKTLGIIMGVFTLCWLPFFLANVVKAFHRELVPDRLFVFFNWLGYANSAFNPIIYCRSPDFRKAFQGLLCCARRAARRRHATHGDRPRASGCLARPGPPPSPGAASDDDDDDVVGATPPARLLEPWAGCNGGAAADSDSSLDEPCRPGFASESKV

[17] = tested on: bone marrow; experiment: Rat bone marrow micronucleus assay; type: in vivo, Sprague Dawley Rat; details: 200, 600 and 2000 mg/kg oral gavage once daily for 3 days; GLP
Description: No damage on chromosomal integrity or abnormal chromosome
Rat bone marrow Sprague Dawley Rat 5/gender/group segregation in the bone marrow was noted after SD rats were administered Yes
3 consecutive days. The result of this micronucleus assay was negative. […]

[18] = tested on: NCI-H358 cells; experiment: Cell-cycle analysis by flow cytometry; type: cell-based, human; details: NCI-H358, 24 hours, 10 to 1,000 nmol/L
Text: Cells were then harvested and fixed using FxCycle PI/RNase Staining Solution (Invitrogen). Cell populations at varying stages of the cell cycle were examined using Miltenyi MACSQuant Analyzer and FlowJo software (RRID: SCR_008520) based on the distribution of DNA content.

[19] = biological target: Glucocorticoid GR (Homo sapiens, UniProt P04150); experiment: 41-target safety off-target activity panel
Chain of Glucocorticoid GR (P04150 whole entry): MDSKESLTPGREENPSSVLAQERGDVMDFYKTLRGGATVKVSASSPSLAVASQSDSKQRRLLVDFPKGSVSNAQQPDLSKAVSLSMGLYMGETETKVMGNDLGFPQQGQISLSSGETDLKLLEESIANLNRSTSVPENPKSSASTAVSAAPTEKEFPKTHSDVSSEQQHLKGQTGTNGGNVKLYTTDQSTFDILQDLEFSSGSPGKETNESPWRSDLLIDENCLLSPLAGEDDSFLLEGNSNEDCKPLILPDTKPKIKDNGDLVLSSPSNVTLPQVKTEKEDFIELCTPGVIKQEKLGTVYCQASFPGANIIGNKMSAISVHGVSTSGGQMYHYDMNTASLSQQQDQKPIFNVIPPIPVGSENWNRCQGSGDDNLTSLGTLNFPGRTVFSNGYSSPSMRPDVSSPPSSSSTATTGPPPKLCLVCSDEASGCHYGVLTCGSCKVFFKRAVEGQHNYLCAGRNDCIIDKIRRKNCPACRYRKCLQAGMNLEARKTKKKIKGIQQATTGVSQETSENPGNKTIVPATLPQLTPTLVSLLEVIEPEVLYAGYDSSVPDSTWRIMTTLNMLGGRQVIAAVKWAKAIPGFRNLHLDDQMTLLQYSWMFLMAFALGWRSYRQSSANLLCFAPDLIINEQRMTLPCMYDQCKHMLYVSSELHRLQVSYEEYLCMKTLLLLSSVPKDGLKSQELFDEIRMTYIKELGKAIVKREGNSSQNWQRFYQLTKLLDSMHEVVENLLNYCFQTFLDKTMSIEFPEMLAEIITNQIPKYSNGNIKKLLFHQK

[20] = tested on: NCI-H1373 lung cancer xenograft; experiment: Cell line–derived xenograft study; type: in vivo, BALB/c-nu mice
Text: as §1

[21] = biological target: Opioid κ (Homo sapiens, UniProt P41145); experiment: 41-target safety off-target activity panel
Chain of Opioid κ (P41145 whole entry): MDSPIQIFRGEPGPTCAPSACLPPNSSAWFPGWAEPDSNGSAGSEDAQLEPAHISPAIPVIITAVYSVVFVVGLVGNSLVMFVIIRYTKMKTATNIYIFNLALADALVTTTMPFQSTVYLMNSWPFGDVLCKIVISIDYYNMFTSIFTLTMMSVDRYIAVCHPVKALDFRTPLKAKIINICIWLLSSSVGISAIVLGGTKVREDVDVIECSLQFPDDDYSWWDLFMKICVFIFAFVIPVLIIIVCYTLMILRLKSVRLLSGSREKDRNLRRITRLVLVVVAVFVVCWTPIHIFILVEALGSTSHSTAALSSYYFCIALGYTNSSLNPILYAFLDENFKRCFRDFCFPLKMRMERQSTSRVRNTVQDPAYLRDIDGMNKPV

[22] = biological target: T4, GDP-bound HRAS WT (Homo sapiens, UniProt P01112); experiment: SOS1-mediated guanine nucleotide exchange assay (TR-FRET); type: biochemical
T4 construct: His-tagged HRAS WT (aa 1–166); made in house; host or cells: Escherichia coli
T4 sequence (P01112 1-166): as the sequence (P01112 1-166) above

[23] = biological target: Dopamine D2S (Homo sapiens, UniProt P14416); experiment: 41-target safety off-target activity panel
Chain of Dopamine D2S (P14416 1-414 isoform P14416-2): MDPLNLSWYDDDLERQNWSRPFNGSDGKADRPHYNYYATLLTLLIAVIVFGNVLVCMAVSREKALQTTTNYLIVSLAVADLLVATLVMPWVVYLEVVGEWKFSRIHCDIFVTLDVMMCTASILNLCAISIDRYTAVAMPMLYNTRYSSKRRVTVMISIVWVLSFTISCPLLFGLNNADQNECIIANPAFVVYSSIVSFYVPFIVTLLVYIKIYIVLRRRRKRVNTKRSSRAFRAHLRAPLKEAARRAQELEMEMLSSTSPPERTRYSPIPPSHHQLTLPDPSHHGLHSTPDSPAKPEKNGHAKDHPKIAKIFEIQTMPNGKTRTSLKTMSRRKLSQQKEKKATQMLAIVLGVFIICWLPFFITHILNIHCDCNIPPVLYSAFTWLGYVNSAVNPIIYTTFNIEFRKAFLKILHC

Chain of Cholecystokinin CCK1 (P32238 whole entry): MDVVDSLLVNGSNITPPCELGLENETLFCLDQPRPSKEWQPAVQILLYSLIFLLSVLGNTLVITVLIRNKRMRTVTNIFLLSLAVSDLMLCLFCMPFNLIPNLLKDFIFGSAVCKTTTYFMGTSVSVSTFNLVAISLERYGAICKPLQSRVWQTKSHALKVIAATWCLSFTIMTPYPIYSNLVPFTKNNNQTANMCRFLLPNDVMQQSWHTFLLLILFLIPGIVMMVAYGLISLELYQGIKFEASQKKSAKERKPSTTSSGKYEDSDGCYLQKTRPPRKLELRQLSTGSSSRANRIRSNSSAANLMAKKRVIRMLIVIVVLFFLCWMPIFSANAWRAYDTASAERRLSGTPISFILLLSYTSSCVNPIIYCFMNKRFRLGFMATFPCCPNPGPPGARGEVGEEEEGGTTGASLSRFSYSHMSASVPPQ
Chain of Adrenergic α1A (P35348 whole entry): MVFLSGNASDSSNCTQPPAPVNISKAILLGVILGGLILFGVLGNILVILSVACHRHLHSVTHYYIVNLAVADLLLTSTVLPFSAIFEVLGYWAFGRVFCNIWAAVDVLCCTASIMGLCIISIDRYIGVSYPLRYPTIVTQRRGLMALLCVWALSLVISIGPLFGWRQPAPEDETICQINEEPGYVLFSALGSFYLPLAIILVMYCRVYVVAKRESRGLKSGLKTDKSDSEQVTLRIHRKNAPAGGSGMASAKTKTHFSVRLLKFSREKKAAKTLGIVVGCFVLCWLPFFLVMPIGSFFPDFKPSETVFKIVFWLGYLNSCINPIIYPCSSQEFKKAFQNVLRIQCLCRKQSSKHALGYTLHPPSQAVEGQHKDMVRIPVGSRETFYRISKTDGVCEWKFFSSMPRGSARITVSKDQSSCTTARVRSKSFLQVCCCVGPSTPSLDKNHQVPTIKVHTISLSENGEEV
Chain of Adrenergic α2A (P08913 whole entry): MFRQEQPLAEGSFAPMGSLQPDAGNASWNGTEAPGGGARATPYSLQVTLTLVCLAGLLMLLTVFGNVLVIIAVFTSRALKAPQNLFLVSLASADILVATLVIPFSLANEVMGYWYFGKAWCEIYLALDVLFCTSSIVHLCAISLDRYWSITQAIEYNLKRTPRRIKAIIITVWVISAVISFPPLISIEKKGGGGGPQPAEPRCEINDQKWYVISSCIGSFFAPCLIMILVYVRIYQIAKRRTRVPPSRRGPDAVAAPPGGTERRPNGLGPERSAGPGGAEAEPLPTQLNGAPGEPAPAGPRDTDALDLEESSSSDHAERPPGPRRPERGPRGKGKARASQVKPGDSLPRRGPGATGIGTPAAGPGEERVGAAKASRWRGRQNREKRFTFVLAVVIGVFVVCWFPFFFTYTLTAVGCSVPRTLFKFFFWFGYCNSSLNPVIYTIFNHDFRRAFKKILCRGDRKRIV

SMILES: C=CC(=O)N1CCN(c2c(C#N)c(=O)n(-c3c(C)ccnc3C(C)C)c3nc(-c4c(N)c(F)c(F)c(F)c4F)c(Cl)cc23)CC1 [Glecirasib]
- inhibition at 10 µM [1]: 44.1%
- Mean % activation ([1]; Glecirasib 10 μM): 1.74%
- inhibition at 10 µM [2]: 22.9%
- Mean % activation ([2]; Glecirasib 10 μM): 27.61%
- inhibition at 10 µM [3]: 27.9%
- Mean % activation ([3]; Glecirasib 10 μM): 22.71%
- tumor response [4]: tumor regression
- inhibition at 10 µM [5]: -8.33%
- inhibition at 10 µM [6]: 4.28%
- Mean % activation ([6]; Glecirasib 10 μM): -1.49%
- inhibition rate [7]: less than 50%
- IC50 [8]: > 10 µM
- inhibition at 10 µM [9]: 50%
- inhibition at 10 µM [10]: 1.01%
- IC50 [11]: > 10 µM
- inhibition at 10 µM [12]: 4.04%
- inhibition at 0.000391 µM [13]: -2%
- inhibition at 0.00156 µM [13]: 1%
- inhibition at 0.025 µM [13]: 29%
- inhibition at 0.1 µM [13]: 55%
- inhibition at 0.4 µM [13]: 69%
- inhibition at 0.000195 µM [14]: -6%
- inhibition at 0.000781 µM [14]: 8%
- inhibition at 0.00313 µM [14]: 20%
- inhibition at 0.0125 µM [14]: 48%
- inhibition at 0.05 µM [14]: 64%
- inhibition at 0.2 µM [14]: 70%
- tumor response of rebound tumors [15]: exhibited resistance
- inhibition at 10 µM [16]: 30.9%
- Mean % activation ([16]; Glecirasib 10 μM): 16.84%
- micronucleus assay result [17]: negative
- cell-cycle effect [18]: induced cell-cycle arrest at the G0/G1 phase in a dose-dependent manner
- inhibition at 10 µM [19]: 47%
- Mean % activation ([19]; Glecirasib 10 μM): -2.33%
- tumor response ([20]; 10 mg/kg daily dose, orally): tumor regression
- TGI ([20]; NCI-H1373 lung cancer xenograft model, single agents or combination, orally once a day): 67%
- tumor growth, dose dependence ([20]; once a day orally): dose-dependently inhibited the growth
- inhibition at 10 µM [21]: 20.9%
- Mean % activation ([21]; Glecirasib 10 μM): 10.20%
- IC50 [22]: > 10 µM
- inhibition at 10 µM [23]: 0.22%
- Mean % activation ([23]; Glecirasib 10 μM): -0.38%

Reference: article PMC12076188 (Cancer Research Communications, 2025)
